What was measured:
LNCaP cells [1] = experiment: Sulforhodamine B (SRB) in vitro chemosensitivity assay on LNCaP cells; format: cell-based; conditions: for GI50 / LC50: Homo sapiens, LNCaP, 144 h; for GI50: read-out: Growth inhibition (GI50), LNCaP cells, 144 h exposure; for LC50: read-out: cytocidal effects by 50% (LC50), LNCaP cells, 144 h exposure, n.r. = not reached; for cytocidal (cell killing) activity: LNCaP cells, 144 h exposure
Description: (§1) Sulforhodamine B (SRB) assay was used according to the method by Skehan et al. (JNCI, 1990). Briefly, cells were collected by trypsinization, counted and plated at a density of 5,000 cells/well in 96-well flat-bottomed microtiter plates (100 μl of cell suspension/well). In the chemosensitivity assay, experiments were run in octuplicate, and each experiment was repeated three times. The optical density (OD) of cells was determined at a wavelength of 490 nm by a colorimetric plate reader.
(§2) Growth inhibition and cytocidal effect of drugs were calculated according to the formula reported by Monks et al. (JNCI, 1991): [(ODtreated−ODzero)/(ODcontrol−ODzero)]×100%, when ODtreated is > to ODzero. If ODtreated is above ODzero, treatment has induced a cytostatic effect, whereas if ODtreated is below ODzero, cell killing has occurred. The ODzero depicts the cell number at the moment of drug addition, the ODcontrol reflects the cell number in untreated wells and the ODtreated reflects the cell number in treated wells on the day of the assay. TUNEL Assay
The authors examined the antitumour activity of the compounds for which the synthesis is described above, in the hormone-sensitive prostate cancer cell line LNCaP. (R)-Bicalutamide and the novel compounds were tested at the increasing concentrations of […]. The highest dose used was chosen on the basis of the clinically achievable peak plasma concentration reported in the literature for bicalutamide (Cockshott I D. Clin Pharmacokinet. 2004; 43 (13) 855-78).
After 144-hr exposure time, the cytotoxic effect of the molecules was calculated according to the method of Monks et al. (Monks A, et al., J. Nat. Cancer Inst. 1991; 83: 757-66).

LNCaP cells [2] = experiment: TUNEL assay of apoptotic cells in LNCaP; format: cell-based, human; conditions: 144-h exposure, 20.0 μM
Description: Cells were fixed in 1% paraformaldehyde in PBS on ice for 15 min, suspended in ice cold ethanol (70%) and stored overnight at −20° C. Cells were then washed twice in PBS and resuspended in PBS containing 0.1% Triton X-100 for 5 min at 4° C. Thereafter, samples were incubated in 50 μl of solution containing TdT and FITC-conjugated dUTP deoxynucleotides 1:1 (Roche Diagnostic GmbH, Mannheim, Germany) in a humidified atmosphere for 90 min at 37° C. in the dark, washed in PBS, counterstained with propidium iodide (2.5 μg/ml, MP Biomedicals, Verona, Italy) and RNAse (10 Kunits/ml, Sigma Aldrich, Milan, Italy) for 30 min at 4° C. in the dark and analyzed by flow cytometry.
After the end of drug exposures, medium was removed and cells were detached from the flasks by trypsin treatment, washed twice with PBS and stained according to the different methods specified below. Flow cytometric analysis was performed using a FACS Canto flow cytometer (Becton Dickinson, San Diego, Calif.). Data acquisition and analysis were performed using FACSDiva software (Becton Dickinson). Samples were run in triplicate and 10,000 events were collected for each replica. Data were the average of three experiments, with errors under 5%.
The cells, before TUNEL assay, were continuously exposed to the anti-androgen compounds for 144 hours at the concentration of 20.0 μM.

DU145 = experiment: SRB cytotoxicity on DU145 cells; format: cell-based, human; conditions: DU145 cells (no AR), 144 h exposure
Description: (§3) Finally, compounds were also tested on HepG2 cells, originally isolated from a primary hepatoblastoma of a child, purchased from ATCC.
as §1, §2
(§4) The authors tested the antitumour activity of the compounds also on PC-3 and DU145 cancer cell lines, representative of hormone-refractory prostate cancer due to AR receptor absence.

[3] = tested on: normal stem cells derived from human peripheral blood stem cells; experiment: Colony-forming cell assay (GM-CFU); format: cell-based; conditions: highest concentration tested, 14 days incubation
Description: The colony-forming cell assay was used as previously described [Motta M R et al., Exp Hematol 1997; 25:1261-1269]. In brief, for each molecule, 5×10^4 cells were plated in duplicate in a complete culture medium (MethoCult H4434, StemCell Technologies, Vancouver, Canada) containing different concentrations (0.2, 2, and 20 μmol/l) of the compound. After 14 days of incubation in a humidified atmosphere of 5% CO2 at the temperature of 37° C., granulocyte macrophage colony-forming unit (GM-CFU) aggregates of more than 50 cells were counted. Control cells were incubated under the same conditions but in drug-free medium.
The authors also evaluated the potential toxicity of some of the novel compounds in normal cells as the ability of the drugs to inhibit clonogenic growth of normal stem cells derived from human peripheral blood stem cells (FIG. 37). The exposure of hematopoietic precursor to the compounds, caused low ((S)-37) or negligible (, (R)-22, (R)-23, (R)-10) toxicity at the highest concentration tested.

HepG2 cells = experiment: Cytotoxic activity on hepatoblastoma cell line HepG2; format: cell-based, human; conditions: up to highest concentration tested
Description: as §3, §1, §2
(§5) The authors evaluated in vitro the potential hepato-toxicity of some of the novel compounds on HepG2 cell line, a human hepatoblastoma cell line that retains the specialized function of normal hepatocytes [Knowles B B, et al., Science 1980, 209:497-499; Aden D P, et al., Nature, 1979, 282:615-616].

[4] = as above; format: cell-based, human; conditions: human, HepG2 cells
Description: as §3, §1, §2, §5

PC-3 = experiment: SRB cytotoxicity on PC-3 cells; format: cell-based, human; conditions: PC-3 cells (no AR), 144 h exposure
Description: as §3, §1, §2, §4

LNCaP-AR cells = experiment: TUNEL assay of apoptotic cells in LNCaP-AR; format: cell-based, human; conditions: 20.0 μM; for Apoptotic cells (%): LNCaP-AR, 144-h exposure, TUNEL

| Compound | GI50 (LNCaP cells [1]) | LC50 (LNCaP cells [1]) | cytocidal (cell killing) activity (LNCaP cells [1]) | Apoptotic cells (%) (LNCaP cells [2]) | cytotoxic properties compared to effects on LNCaP and LNCaP-AR cells (DU145) | toxicity: inhibition of clonogenic growth of hematopoietic precursors [3] | potential hepato-toxicity (HepG2 cells) | GI50 [4] | LC50 (concentration killing 50% of cells) [4] | cytotoxic properties compared to effects on LNCaP and LNCaP-AR cells (PC-3) | Apoptotic cells (%) (LNCaP-AR cells) | apoptosis induction in the LNCaP derivative cell line versus LNCaP (LNCaP-AR cells; 144 h) |
| --- | --- | --- | --- | --- | --- | --- | --- | --- | --- | --- | --- | --- |
| N#Cc1ccc(N2C(=O)[C@](Cc3ccc(F)cc3)(c3ccccc3)NC2=S)cc1C(F)(F)F [(S)-37] | 5.8 µM | 16.8 µM | cytocidal activity | 93.4% | significant reduction in their cytotoxic proprieties | low | significant toxicity | 7.4 µM | 17.7 µM | significant reduction in their cytotoxic proprieties | 89.5% | – |
| CS(=O)(=O)N[C@@](Cc1ccccc1)(CS(=O)(=O)c1ccc(F)cc1)C(=O)Nc1ccc(C#N)c(C(F)(F)F)c1 [(R)-10, (R)-2-benzyl-N-(4-cyano-3-(trifluoromethyl)phenyl)-3-(4-fluorophenylsulfonyl)-2-(methylsulfonamido)propanamide] | 7.4 µM | 17.7 µM | cytocidal activity | 35.5% | significant reduction in their cytotoxic proprieties | negligible | negligible toxicity | – | – | significant reduction in their cytotoxic proprieties | 42.7% | more active |

Reference: patent publication US8859599B2, “Androgen receptor modulating compounds, preparation and uses thereof” (priority 2009, dated 2014)
